Assay results taken from patent US11390616B2 (BRISTOL-MYERS SQUIBB COMPANY, priority 2015, dated 2022).

target: T1, human APJ receptor (Homo sapiens, UniProt P35414); test: Intracellular cAMP accumulation assay (APJ hcAMP, HTRF); type: cell-based; conditions: HEK293 cells stably expressing human APJ receptor; inhibition of forskolin-mediated cAMP production; read-out: APJ cAMP Potency range
T1 construct: expressed in transfected cells; host or cells: HEK293
T1 sequence (P35414 1-380): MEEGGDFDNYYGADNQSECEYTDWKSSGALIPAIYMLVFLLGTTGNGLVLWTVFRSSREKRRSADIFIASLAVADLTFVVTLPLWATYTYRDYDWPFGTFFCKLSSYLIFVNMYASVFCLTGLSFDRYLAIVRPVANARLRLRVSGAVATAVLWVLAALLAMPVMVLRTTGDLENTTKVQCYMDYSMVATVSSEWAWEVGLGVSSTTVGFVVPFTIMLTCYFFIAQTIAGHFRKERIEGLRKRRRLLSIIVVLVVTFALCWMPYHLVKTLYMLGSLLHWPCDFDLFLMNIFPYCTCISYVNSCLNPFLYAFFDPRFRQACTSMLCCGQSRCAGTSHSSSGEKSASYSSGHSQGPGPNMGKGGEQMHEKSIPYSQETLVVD
Method: Intracellular cAMP Accumulation Assay
HEK293 cells stably expressing human APJ receptor were used to assess the activity of compounds. Cultured cells were detached and resuspended in the cAMP Homogeneous Time-Resolved Fluorescence (HTRF) assay buffer (Cisbio cat; #62AM4PEJ). The assay was performed in 384-well assay plates (Perkin-Elmer; cat #6008289) according to assay protocol provided by the manufacturer. Serial dilutions of a compound together with assay buffer containing […] IBMX and 2 μM forskolin were added to each well containing 5,000 cells and incubated for 30 minutes at room temperature. Subsequently, cAMP D2 reagent was added in the lysis buffer followed by the EuK antibody (Cisbio; cat #62AM4PEJ) and incubated for 60 min. The fluorescence emission ratio was measured using fluorometer. The intracellular cAMP concentrations (compound-stimulated inhibition of forskolin-mediated cAMP production) were calculated by extrapolation from a standard curve using known cAMP concentrations. The EC50 values were obtained by fitting the data to a sigmoidal concentration-response curve with variable slope. The maximal achievable inhibition of forskolin-induced cAMP levels (Ymax) for each compound was expressed as relative percentage of inhibition attained using pyroglutamated apelin-13 ((Pyr1)apelin-13) peptide, which was set to 100%.
The examples disclosed below were tested in the APJ in vitro assays described above and were found having human APJ cyclic AMP (hcAMP) activity. The EC50 value of each compound is presented at the end of the example description.
The biological activity of the exemplified compounds of this invention determined by the assay described above is shown at the end of each example.

EC50 [nM] | Compound
0.01 to 10 | CCCCc1nc(O)c(Cc2cnc(-c3ccc(Cl)cc3)s2)c(=O)n1-c1c(OC)cccc1OC [Example 26, 2-butyl-5-{[2-(4-chlorophenyl)-1,3-thiazol-5-yl]methyl}-3-(2,6-dimethoxyphenyl)-6-hydroxy-3,4-dihydropyrimidin-4-one]
0.01 to 10 | CCCCc1nc(O)c(Cc2ccc(Cn3cccn3)cc2)c(=O)n1-c1c(OC)cccc1OC [Example 27, 2-butyl-3-(2,6-dimethoxyphenyl)-6-hydroxy-5-{[4-(1H-pyrazol-1-ylmethyl)phenyl]methyl}-3,4-dihydropyrimidin-4-one]
0.01 to 10 | CCCCc1nc(O)c(Cc2ccc(-n3ccccc3=O)cc2)c(=O)n1-c1c(OC)cccc1OC [Example 28, 2-butyl-3-(2,6-dimethoxyphenyl)-6-hydroxy-5-{[4-(2-oxo-1,2-dihydropyridin-1-yl)phenyl]methyl}-3,4-dihydropyrimidin-4-one]
0.01 to 10 | CCCCc1nc(O)c(Cc2ccc(-c3ccc(OC)cc3)nc2)c(=O)n1-c1c(OC)cccc1OC [Example 29, 2-butyl-3-(2,6-dimethoxyphenyl)-6-hydroxy-5-{[6-(4-methoxyphenyl)pyridin-3-yl]methyl}-3,4-dihydropyrimidin-4-one]
0.01 to 10 | CCCCc1nc(O)c(Cc2cnn(Cc3ccccc3)c2)c(=O)n1-c1c(OC)cccc1OC [Example 30, 5-[(1-benzyl-1H-pyrazol-4-yl)methyl]-2-butyl-3-(2,6-dimethoxyphenyl)-6-hydroxy-3,4-dihydropyrimidin-4-one]
10 to 100 | CCOCc1nc(O)c(Cc2ccn(-c3ccc(Cl)cc3)n2)c(=O)n1-c1c(OC)cccc1OC [Example 31, 5-{[1-(4-chlorophenyl)-1H-pyrazol-3-yl]methyl}-3-(2,6-dimethoxyphenyl)-2-(ethoxymethyl)-6-hydroxy-3,4-dihydropyrimidin-4-one]
10 to 100 | CCOCc1nc(O)c(Cc2ccc(-c3ncon3)cc2)c(=O)n1-c1c(OC)cccc1OC [Example 32, 3-(2,6-dimethoxyphenyl)-2-(ethoxymethyl)-6-hydroxy-5-{[4-(1,2,4-oxadiazol-3-yl)phenyl]methyl}-3,4-dihydropyrimidin-4-one]
10 to 100 | CCOCc1nc(O)c(Cc2coc(-c3ccc(Cl)cc3)n2)c(=O)n1-c1c(OC)cccc1OC [Example 33, 5-{[2-(4-chlorophenyl)-1,3-oxazol-4-yl]methyl}-3-(2,6-dimethoxyphenyl)-2-(ethoxymethyl)-6-hydroxy-3,4-dihydropyrimidin-4-one]
0.01 to 10 | COc1cccc(OC)c1-n1c(CCC(C)C)nc(O)c(Cc2ccc(-n3ccccc3=O)cc2)c1=O [Example 34, 3-(2,6-dimethoxyphenyl)-6-hydroxy-2-(3-methylbutyl)-5-{[4-(2-oxo-1,2-dihydropyridin-1-yl)phenyl]methyl}-3,4-dihydropyrimidin-4-one]
0.01 to 10 | CCCCc1nc(O)c(Cc2ccc(N3CCCCC3=O)cc2)c(=O)n1-c1c(OC)cccc1OC [Example 35, 2-butyl-3-(2,6-dimethoxyphenyl)-6-hydroxy-5-{[4-(2-oxopiperidin-1-yl)phenyl]methyl}-3,4-dihydropyrimidin-4-one]
0.01 to 10 | CCCCc1nc(O)c(Cc2ccc(N3CCOCC3)cc2)c(=O)n1-c1c(OC)cccc1OC [Example 36, 2-butyl-3-(2,6-dimethoxyphenyl)-6-hydroxy-5-{[4-(morpholin-4-yl)phenyl]methyl}-3,4-dihydropyrimidin-4-one]
0.01 to 10 | COc1cccc(OC)c1-n1c(C2CCCC2)nc(O)c(Cc2ccc(-n3ccccc3=O)cc2)c1=O [Example 38, 2-cyclopentyl-3-(2,6-dimethoxyphenyl)-6-hydroxy-5-{[4-(2-oxo-1,2-dihydropyridin-1-yl)phenyl]methyl}-3,4-dihydropyrimidin-4-one]
0.01 to 10 | COc1cccc(OC)c1-n1c(COC2CC2)nc(O)c(Cc2ccc(-n3ccccc3=O)cc2)c1=O [Example 40, 2-(cyclopropoxymethyl)-3-(2,6-dimethoxyphenyl)-6-hydroxy-5-{[4-(2-oxo-1,2-dihydropyridin-1-yl)phenyl]methyl}-3,4-dihydropyrimidin-4-one]
0.01 to 10 | COc1cccc(OC)c1-n1c(CCC2CC2)nc(O)c(Cc2ccc(-n3ccccc3=O)cc2)c1=O [Example 41, 2-(2-cyclopropylethyl)-3-(2,6-dimethoxyphenyl)-6-hydroxy-5-{[4-(2-oxo-1,2-dihydropyridin-1-yl)phenyl]methyl}-3,4-dihydropyrimidin-4-one]
0.01 to 10 | CCCCc1nc(O)c(Cc2ccc(-n3ccc(Cl)cc3=O)cc2)c(=O)n1-c1c(OC)cccc1OC [Example 42, 2-butyl-5-{[4-(4-chloro-2-oxo-1,2-dihydropyridin-1-yl)phenyl]methyl}-3-(2,6-dimethoxyphenyl)-6-hydroxy-3,4-dihydropyrimidin-4-one]
0.01 to 10 | CCCCc1nc(O)c(Cc2ccc(-n3ccc(C)cc3=O)cc2)c(=O)n1-c1c(OC)cccc1OC [Example 43, 2-butyl-3-(2,6-dimethoxyphenyl)-6-hydroxy-5-{[4-(4-methyl-2-oxo-1,2-dihydropyridin-1-yl)phenyl]methyl}-3,4-dihydropyrimidin-4-one]
10 to 100 | CCCCc1nc(O)c(Cc2ccc(-c3ccc(C)nc3)cc2)c(=O)n1-c1c(OC)cccc1OC [Example 44, 2-butyl-3-(2,6-dimethoxyphenyl)-6-hydroxy-5-{[4-(6-methylpyridin-3-yl)phenyl]methyl}-3,4-dihydropyrimidin-4-one]
0.01 to 10 | CCCCc1nc(O)c(Cc2ccc(-c3ccccc3)cc2)c(=O)n1-c1c(OC)cccc1OC [Example 45, 5-({[1,1′-biphenyl]-4-yl}methyl)-2-butyl-3-(2,6-dimethoxyphenyl)-6-hydroxy-3,4-dihydropyrimidin-4-one]
0.01 to 10 | CCCCc1nc(O)c(Cc2ccc(-c3ccc(Cl)cn3)cc2)c(=O)n1-c1c(OC)cccc1OC [Example 46, 2-butyl-5-{[4-(5-chloropyridin-2-yl)phenyl]methyl}-3-(2,6-dimethoxyphenyl)-6-hydroxy-3,4-dihydropyrimidin-4-one]
0.01 to 10 | CCCCc1nc(O)c(Cc2ccc(-n3cc(F)ccc3=O)cc2)c(=O)n1-c1c(OC)cccc1OC [Example 47, 2-butyl-3-(2,6-dimethoxyphenyl)-5-{[4-(5-fluoro-2-oxo-1,2-dihydropyridin-1-yl)phenyl]methyl}-6-hydroxy-3,4-dihydropyrimidin-4-one]
0.01 to 10 | CCCCc1nc(O)c(Cc2ccc(-c3cccnc3OC)cc2)c(=O)n1-c1c(OC)cccc1OC [Example 48, 2-butyl-3-(2,6-dimethoxyphenyl)-6-hydroxy-5-{[4-(2-methoxypyridin-3-yl)phenyl]methyl}-3,4-dihydropyrimidin-4-one]
0.01 to 10 | CCCCc1nc(O)c(Cc2ccc(-n3cc(Cl)ccc3=O)cc2)c(=O)n1-c1c(OC)cccc1OC [Example 49, 2-butyl-5-{[4-(5-chloro-2-oxo-1,2-dihydropyridin-1-yl)phenyl]methyl}-3-(2,6-dimethoxyphenyl)-6-hydroxy-3,4-dihydropyrimidin-4-one]
0.01 to 10 | CCCCc1nc(O)c(Cc2ccc(-n3cc(C)ccc3=O)cc2)c(=O)n1-c1c(OC)cccc1OC [Example 50, 2-butyl-3-(2,6-dimethoxyphenyl)-6-hydroxy-5-{[4-(5-methyl-2-oxo-1,2-dihydropyridin-1-yl)phenyl]methyl}-3,4-dihydropyrimidin-4-one]
0.01 to 10 | COc1cccc(OC)c1-n1c(C2CCCC2)nc(O)c(Cc2ccc(-n3cc(F)ccc3=O)cc2)c1=O [Example 51, 2-cyclopentyl-3-(2,6-dimethoxyphenyl)-5-{[4-(5-fluoro-2-oxo-1,2-dihydropyridin-1-yl)phenyl]methyl}-6-hydroxy-3,4-dihydropyrimidin-4-one]

Compound | EC50 [nM]
COc1cccc(OC)c1-n1c(COC2CCC2)nc(O)c(Cc2ccc(-n3ccccc3=O)cc2)c1=O [Example 39, 2-(cyclobutoxymethyl)-3-(2,6-dimethoxyphenyl)-6-hydroxy-5-{[4-(2-oxo-1,2-dihydropyridin-1-yl)phenyl]methyl}-3,4-dihydropyrimidin-4-one] | 0.01 to 10

same assay, conditions: HEK293 cells stably expressing human APJ receptor; inhibition of forskolin-mediated cAMP production; read-out: Human APJ cAMP EC50 potency range

EC50 [nM] | Compound
0.01 to 10 | COc1cccc(OC)c1-n1c(-c2ccc(F)cc2)nc(O)c(Cc2ccc(-n3cc(F)ccc3=O)cc2)c1=O [Example 37, 3-(2,6-dimethoxyphenyl)-5-(4-(5-fluoro-2-oxopyridin-1(2H)-yl)benzyl)-2-(4-fluorophenyl)-6-hydroxypyrimidin-4(3H)-one]
